# Laboratory results: US20100292231A1, “Indazole Compounds for Treating Inflammatory Disorders, Demyelinating Disorders and Cancers” (priority 2007, published 2010)
# Like-named read-outs stand apart in the source and are kept apart here.
# Tests used:
# Experiment in all cases: SelectScreen kinase specificity survey
# Format in all cases: biochemical
# ADRBK1 (BARK1, GRK2) = target: T1, ADRBK1 (BARK1, GRK2) (Homo sapiens, UniProt P25098)
# T1 construct: purchased Invitrogen (SelectScreen platform)
# Summary of the method: (§1)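 Kinases from all classes (230 in total) are treated with a unique substrate and optical read-out system in the presence of 100 micromolar ATP. Uninhibited controls give the baseline phosphorylation signal, and graded compound in 5 steps yields the curve for Hill fitting.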
# AKT1 (PKB alpha) = target: T2, AKT1 (PKB alpha) (Homo sapiens, UniProt P31749); conditions: estimated, abridged dose response curve, read-out: Kinase inhibitory activity EC50
# T2 construct: purchased Invitrogen (SelectScreen platform)
# Summary of the method: as §1
# CLK3 = target: T3, CLK3 (Homo sapiens, UniProt P49761); conditions: estimated, abridged dose response curve, read-out: Kinase inhibitory activity EC50
# T3 construct: purchased Invitrogen (SelectScreen platform)
# Summary of the method: as §1
# CSNK1D (CK1 delta) = target: T4, CSNK1D (CK1 delta) (Homo sapiens, UniProt P48730); conditions: estimated, abridged dose response curve, read-out: Kinase inhibitory activity EC50
# T4 construct: purchased Invitrogen (SelectScreen platform)
# Summary of the method: as §1
# CSNK1G1 (CK1 gamma 1) = target: T5, CSNK1G1 (CK1 gamma 1) (Homo sapiens, UniProt Q9HCP0); conditions: estimated, abridged dose response curve, read-out: Kinase inhibitory activity EC50
# T5 construct: purchased Invitrogen (SelectScreen platform)
# Summary of the method: as §1
# ERBB2 (HER2) = target: T6, ERBB2 (HER2) (Homo sapiens, UniProt P04626); conditions: estimated, abridged dose response curve, read-out: Kinase inhibitory activity EC50
# T6 construct: purchased Invitrogen (SelectScreen service)
# Summary of the method: as §1
# FLT3 D835Y = target: T7, FLT3 D835Y (Homo sapiens, UniProt P36888, D835Y); conditions: estimated, abridged dose response curve, read-out: Kinase inhibitory activity EC50
# T7 construct: purchased Invitrogen (SelectScreen platform)
# T7 sequence (P36888 27-993 D835Y): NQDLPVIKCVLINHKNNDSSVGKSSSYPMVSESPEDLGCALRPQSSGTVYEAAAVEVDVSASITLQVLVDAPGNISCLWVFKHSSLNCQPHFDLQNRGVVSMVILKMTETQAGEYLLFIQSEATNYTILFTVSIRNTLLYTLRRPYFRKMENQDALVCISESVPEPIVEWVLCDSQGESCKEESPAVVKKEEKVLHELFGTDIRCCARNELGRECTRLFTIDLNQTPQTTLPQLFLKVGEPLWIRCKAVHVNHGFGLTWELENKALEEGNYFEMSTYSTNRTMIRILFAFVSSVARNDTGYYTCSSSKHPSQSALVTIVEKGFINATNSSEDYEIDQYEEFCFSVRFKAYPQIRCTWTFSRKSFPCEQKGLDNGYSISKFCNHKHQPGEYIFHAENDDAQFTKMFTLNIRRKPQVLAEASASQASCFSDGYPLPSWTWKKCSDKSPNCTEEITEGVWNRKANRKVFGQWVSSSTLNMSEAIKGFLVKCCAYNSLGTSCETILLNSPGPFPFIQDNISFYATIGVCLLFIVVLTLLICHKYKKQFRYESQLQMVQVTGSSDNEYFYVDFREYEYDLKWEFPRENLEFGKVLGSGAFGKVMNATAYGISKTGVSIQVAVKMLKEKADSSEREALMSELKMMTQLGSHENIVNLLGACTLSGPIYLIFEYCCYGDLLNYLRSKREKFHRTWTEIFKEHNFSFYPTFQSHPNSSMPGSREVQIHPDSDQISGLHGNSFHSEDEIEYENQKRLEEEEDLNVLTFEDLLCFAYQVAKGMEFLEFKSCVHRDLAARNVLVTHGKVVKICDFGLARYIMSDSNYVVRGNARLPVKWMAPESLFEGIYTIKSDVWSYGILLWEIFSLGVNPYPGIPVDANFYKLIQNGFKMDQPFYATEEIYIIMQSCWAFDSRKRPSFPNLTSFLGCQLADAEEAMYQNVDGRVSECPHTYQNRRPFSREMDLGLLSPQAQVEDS
# Summary of the method: as §1
# FYN = target: T8, FYN (Homo sapiens, UniProt P06241); conditions: estimated, abridged dose response curve, read-out: Kinase inhibitory activity EC50
# T8 construct: purchased Invitrogen (SelectScreen)
# Summary of the method: as §1
# INSR = target: T9, INSR (Homo sapiens, UniProt P06213); conditions: estimated, abridged dose response curve, read-out: Kinase inhibitory activity EC50
# T9 construct: purchased Invitrogen (SelectScreen platform)
# Summary of the method: as §1
# NTRK2 (TRKB) = target: T10, NTRK2 (TRKB) (Homo sapiens, UniProt Q16620)
# T10 construct: purchased Invitrogen (SelectScreen)
# Summary of the method: as §1
# PAK4 = target: T11, PAK4 (Homo sapiens, UniProt O96013); conditions: estimated, abridged dose response curve, read-out: Kinase inhibitory activity EC50
# T11 construct: purchased Invitrogen (SelectScreen platform)
# Summary of the method: as §1
# PHKG2 = target: T12, PHKG2 (Homo sapiens, UniProt P15735); conditions: estimated, abridged dose response curve, read-out: Kinase inhibitory activity EC50
# T12 construct: purchased Invitrogen, Inc. (SelectScreen platform)
# Summary of the method: as §1
# PRKCA (PKC alpha) = target: T13, PRKCA (PKC alpha) (Homo sapiens, UniProt P17252); conditions: estimated, abridged dose response curve, read-out: Kinase inhibitory activity EC50
# T13 construct: purchased Invitrogen (SelectScreen platform)
# Summary of the method: as §1
# RPS6KA3 (RSK2) = target: T14, RPS6KA3 (RSK2) (Homo sapiens, UniProt P51812); conditions: estimated, abridged dose response curve, read-out: Kinase inhibitory activity EC50
# T14 construct: purchased Invitrogen, Inc. (SelectScreen platform)
# Summary of the method: as §1
# SRPK2 = target: T15, SRPK2 (Homo sapiens, UniProt P78362); conditions: estimated, abridged dose response curve, read-out: Kinase inhibitory activity EC50
# T15 construct: purchased Invitrogen, Inc. (SelectScreen service)
# Summary of the method: as §1
# T9 sequence (P06213 28-1382): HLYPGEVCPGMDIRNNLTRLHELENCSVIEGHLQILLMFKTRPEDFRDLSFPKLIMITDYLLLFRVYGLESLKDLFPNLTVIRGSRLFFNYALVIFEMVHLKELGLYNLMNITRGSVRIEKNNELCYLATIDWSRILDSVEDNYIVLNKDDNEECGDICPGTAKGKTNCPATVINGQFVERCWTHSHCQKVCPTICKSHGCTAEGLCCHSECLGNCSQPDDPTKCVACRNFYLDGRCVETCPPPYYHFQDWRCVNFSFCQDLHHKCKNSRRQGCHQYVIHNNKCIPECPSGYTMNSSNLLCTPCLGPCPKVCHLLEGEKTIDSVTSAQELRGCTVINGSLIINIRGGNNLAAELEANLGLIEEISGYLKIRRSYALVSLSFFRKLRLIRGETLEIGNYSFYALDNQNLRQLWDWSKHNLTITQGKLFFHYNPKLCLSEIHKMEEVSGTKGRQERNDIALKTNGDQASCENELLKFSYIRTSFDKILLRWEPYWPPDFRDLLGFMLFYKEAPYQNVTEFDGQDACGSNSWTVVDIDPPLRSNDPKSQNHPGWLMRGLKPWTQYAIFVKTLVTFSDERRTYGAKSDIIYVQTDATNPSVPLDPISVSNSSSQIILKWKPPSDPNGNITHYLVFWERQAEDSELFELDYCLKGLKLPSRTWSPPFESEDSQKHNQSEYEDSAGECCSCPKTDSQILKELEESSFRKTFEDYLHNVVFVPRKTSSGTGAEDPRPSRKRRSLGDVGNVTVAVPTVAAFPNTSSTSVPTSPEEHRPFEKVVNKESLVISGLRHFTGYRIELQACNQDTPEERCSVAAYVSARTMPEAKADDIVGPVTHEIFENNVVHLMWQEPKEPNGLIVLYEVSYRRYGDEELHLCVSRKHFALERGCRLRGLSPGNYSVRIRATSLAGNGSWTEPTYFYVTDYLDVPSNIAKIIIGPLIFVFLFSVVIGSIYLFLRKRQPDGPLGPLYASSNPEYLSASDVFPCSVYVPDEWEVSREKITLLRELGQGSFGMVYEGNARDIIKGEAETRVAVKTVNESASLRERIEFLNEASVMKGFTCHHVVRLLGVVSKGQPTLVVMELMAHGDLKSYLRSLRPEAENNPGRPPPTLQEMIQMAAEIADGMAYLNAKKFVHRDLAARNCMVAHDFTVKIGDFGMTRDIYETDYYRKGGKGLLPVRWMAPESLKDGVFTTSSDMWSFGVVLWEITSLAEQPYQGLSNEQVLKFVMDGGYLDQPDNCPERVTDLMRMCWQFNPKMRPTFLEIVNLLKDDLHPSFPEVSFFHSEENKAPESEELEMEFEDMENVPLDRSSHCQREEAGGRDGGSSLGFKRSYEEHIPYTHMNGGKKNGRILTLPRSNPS
# T14 sequence (P51812 whole entry): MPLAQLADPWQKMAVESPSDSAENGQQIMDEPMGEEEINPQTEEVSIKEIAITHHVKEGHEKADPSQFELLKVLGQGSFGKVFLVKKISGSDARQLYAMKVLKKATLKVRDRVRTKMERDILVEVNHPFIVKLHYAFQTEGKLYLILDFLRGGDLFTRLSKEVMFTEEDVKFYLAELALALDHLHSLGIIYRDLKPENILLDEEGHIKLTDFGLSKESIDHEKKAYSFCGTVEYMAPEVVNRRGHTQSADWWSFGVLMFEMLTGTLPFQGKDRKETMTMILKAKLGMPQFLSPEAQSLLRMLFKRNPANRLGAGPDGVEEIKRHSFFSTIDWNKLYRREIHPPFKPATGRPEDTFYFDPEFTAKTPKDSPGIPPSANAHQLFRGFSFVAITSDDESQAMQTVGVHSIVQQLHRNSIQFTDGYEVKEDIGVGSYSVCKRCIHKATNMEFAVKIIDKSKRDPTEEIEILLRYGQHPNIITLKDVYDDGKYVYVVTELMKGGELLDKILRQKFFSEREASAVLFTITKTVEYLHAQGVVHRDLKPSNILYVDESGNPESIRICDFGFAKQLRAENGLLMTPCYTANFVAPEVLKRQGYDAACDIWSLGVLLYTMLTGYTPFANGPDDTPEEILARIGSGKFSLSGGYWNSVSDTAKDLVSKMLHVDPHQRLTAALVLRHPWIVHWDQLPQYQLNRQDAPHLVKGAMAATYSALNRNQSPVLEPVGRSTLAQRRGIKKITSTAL
# T3 sequence (P49761 whole entry): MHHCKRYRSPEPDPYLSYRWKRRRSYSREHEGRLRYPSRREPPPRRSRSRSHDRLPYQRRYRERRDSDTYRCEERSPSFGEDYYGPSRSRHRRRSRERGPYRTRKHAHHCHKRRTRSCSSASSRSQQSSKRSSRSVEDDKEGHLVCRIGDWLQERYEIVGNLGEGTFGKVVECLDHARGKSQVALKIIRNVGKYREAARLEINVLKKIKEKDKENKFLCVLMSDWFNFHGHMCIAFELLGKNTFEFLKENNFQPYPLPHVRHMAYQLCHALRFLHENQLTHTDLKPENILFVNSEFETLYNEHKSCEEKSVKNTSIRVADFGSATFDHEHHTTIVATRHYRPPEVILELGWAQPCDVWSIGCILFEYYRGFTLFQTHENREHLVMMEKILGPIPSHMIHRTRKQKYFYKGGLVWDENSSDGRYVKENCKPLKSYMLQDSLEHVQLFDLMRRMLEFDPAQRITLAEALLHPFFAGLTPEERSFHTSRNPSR
# T15 sequence (P78362 whole entry): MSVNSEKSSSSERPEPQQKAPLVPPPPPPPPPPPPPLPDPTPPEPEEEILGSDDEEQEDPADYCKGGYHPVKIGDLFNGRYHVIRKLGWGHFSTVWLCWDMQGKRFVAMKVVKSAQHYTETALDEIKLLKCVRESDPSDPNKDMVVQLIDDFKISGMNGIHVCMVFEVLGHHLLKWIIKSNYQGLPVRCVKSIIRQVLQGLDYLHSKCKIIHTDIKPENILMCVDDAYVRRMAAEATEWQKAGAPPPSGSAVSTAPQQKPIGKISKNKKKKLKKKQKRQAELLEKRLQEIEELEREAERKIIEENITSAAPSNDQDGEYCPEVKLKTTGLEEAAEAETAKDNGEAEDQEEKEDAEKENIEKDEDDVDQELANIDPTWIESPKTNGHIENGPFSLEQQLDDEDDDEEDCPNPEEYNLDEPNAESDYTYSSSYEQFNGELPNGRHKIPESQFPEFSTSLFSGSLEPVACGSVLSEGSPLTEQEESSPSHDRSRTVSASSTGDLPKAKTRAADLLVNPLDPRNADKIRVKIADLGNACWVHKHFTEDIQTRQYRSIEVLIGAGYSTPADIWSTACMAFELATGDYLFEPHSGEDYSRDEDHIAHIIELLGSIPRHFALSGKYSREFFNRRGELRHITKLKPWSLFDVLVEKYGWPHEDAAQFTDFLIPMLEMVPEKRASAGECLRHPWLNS
# T4 sequence (P48730 whole entry): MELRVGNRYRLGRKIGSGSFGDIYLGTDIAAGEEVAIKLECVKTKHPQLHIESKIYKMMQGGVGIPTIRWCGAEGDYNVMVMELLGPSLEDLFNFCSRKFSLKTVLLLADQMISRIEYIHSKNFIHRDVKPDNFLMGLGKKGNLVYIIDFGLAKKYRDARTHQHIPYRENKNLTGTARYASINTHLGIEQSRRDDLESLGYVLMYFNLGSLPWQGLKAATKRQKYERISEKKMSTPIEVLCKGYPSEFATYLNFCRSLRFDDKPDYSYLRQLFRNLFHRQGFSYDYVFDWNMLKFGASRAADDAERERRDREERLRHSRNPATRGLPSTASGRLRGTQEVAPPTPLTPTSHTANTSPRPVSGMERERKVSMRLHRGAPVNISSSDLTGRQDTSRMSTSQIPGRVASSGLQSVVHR
# T1 sequence (P25098 whole entry): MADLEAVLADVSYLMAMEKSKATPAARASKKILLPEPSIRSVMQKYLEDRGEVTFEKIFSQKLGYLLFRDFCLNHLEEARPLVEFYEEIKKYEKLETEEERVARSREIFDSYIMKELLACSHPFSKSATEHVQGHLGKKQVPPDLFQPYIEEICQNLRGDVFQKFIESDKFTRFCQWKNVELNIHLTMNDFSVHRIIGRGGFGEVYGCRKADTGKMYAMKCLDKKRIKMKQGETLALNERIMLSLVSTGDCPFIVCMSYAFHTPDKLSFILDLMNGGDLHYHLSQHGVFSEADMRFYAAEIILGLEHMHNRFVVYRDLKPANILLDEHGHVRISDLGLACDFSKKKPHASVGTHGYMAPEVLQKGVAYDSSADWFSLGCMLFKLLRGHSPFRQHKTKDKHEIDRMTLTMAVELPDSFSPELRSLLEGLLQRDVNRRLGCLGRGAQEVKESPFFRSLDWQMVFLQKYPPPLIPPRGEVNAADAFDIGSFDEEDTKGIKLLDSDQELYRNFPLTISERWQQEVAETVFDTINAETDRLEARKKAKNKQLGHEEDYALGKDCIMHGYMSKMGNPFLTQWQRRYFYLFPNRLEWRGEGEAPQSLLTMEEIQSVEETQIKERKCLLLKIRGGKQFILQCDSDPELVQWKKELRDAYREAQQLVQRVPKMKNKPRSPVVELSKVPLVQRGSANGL
"EC50 (ADRBK1 (BARK1, GRK2); ADRBK1 (BARK1, GRK2), estimated, abridged dose response curve, read-out: Kinase inhibitory activity EC50)","EC50 (NTRK2 (TRKB); NTRK2 (TRKB), estimated, abridged dose response curve, read-out: Kinase inhibitory activity EC50)",SMILES,EC50 (AKT1 (PKB alpha)),EC50 (CLK3),EC50 (CSNK1D (CK1 delta)),EC50 (CSNK1G1 (CK1 gamma 1)),EC50 (ERBB2 (HER2)),EC50 (FLT3 D835Y),EC50 (FYN),EC50 (INSR),EC50 (PAK4),EC50 (PHKG2),EC50 (PRKCA (PKC alpha)),EC50 (RPS6KA3 (RSK2)),EC50 (SRPK2),"EC50 (ADRBK1 (BARK1, GRK2))",EC50 (NTRK2 (TRKB))
> 5 µM,0.78 µM,CN(C)CCCNc1ccc2ncn3c4ccc5[nH]ncc5c4c(=O)c1c23 [Compound (IV)],> 5 µM,> 5 µM,4.8 µM,> 5 µM,> 5 µM,0.001 µM,0.754 µM,2.4 µM,> 5 µM,3.72 µM,> 5 µM,1.49 µM,> 5 µM,–,–
–,–,"CCN(CC)CCNc1ccc2ncn3c4ccc(O)cc4c(=O)c1c23 [Symadex, 5-(2-(diethylamino)ethylamino)-8-hydroxy-6H-imidazo[4,5,1-de]acridin-6-one, reference compound]",> 5 µM,> 5 µM,0.673 µM,> 5 µM,> 5 µM,0.003 µM,> 5 µM,> 5 µM,> 5 µM,> 5 µM,> 5 µM,0.692 µM,> 5 µM,> 5 µM,> 5 µM
